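1) Cells in 96-well plates. 2) Compound, 48 h, 5 concentrations. 3) Linear interpolation between surrounding doses. 4) Unreached endpoint = highest concentration. The concentration for 50% growth inhibition is given as GI50.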 Active and inactive are the calls of the source. Cut-off read from the data, not from the text of the source: active = GI50 up to about 1.1 µM and inactive = higher.
Legend:
Assay in all cases: inhibition of tumour cell growth, NCI panel, 48 h
[1] = tested on: A498
[2] = tested on: A549
[3] = tested on: COLO 205
[4] = tested on: HCT-15
[5] = tested on: HOP-62
[6] = tested on: HOP-92
[7] = tested on: IGROV-1
[8] = tested on: KM12
[9] = tested on: NCI-H23
[10] = tested on: NCI/ADR-RES
[11] = tested on: OVCAR-3
[12] = tested on: OVCAR-4
[13] = tested on: OVCAR-5
[14] = tested on: SF-268
[15] = tested on: SF-539
[16] = tested on: SK-OV-3
[17] = tested on: SW-620
[18] = tested on: UACC-62
[19] = tested on: UO-31
[20] = tested on: ACHN

| SMILES | GI50 [1] | GI50 [2] | GI50 [3] | GI50 [4] [µM] | GI50 [5] | GI50 [6] | GI50 [7] | GI50 [8] | GI50 [9] | GI50 [10] | GI50 [11] | GI50 [12] | GI50 [13] | GI50 [14] | GI50 [15] | GI50 [16] | GI50 [17] | GI50 [18] | GI50 [19] | GI50 [20] |
| --- | --- | --- | --- | --- | --- | --- | --- | --- | --- | --- | --- | --- | --- | --- | --- | --- | --- | --- | --- | --- |
| CC(=O)Oc1c(OC(C)=O)c(-c2ccc(O)c(O)c2)c(O)c(O)c1-c1ccc(O)cc1 | > 100 µM (inactive) | > 100 µM (inactive) | > 100 µM (inactive) | > 100 | > 100 µM (inactive) | 30.2 µM (inactive) | 93.1 µM (inactive) | > 100 µM (inactive) | > 100 µM (inactive) | > 100 µM (inactive) | > 100 µM (inactive) | > 100 µM (inactive) | > 100 µM (inactive) | > 100 µM (inactive) | > 100 µM (inactive) | > 100 µM (inactive) | 42.7 µM (inactive) | 27.4 µM (inactive) | > 100 µM (inactive) | – |
| COc1nc(Cl)nc(N[C@H](C)c2c3ccccc3cc3ccccc23)n1 | < 0.01 µM (active) | 27.7 µM (inactive) | 14.4 µM (inactive) | 13.3 | 14.9 µM (inactive) | 18.6 µM (inactive) | 6.75 µM (inactive) | 11.7 µM (inactive) | 16.9 µM (inactive) | 14.2 µM (inactive) | 11.1 µM (inactive) | 3.12 µM (inactive) | 17.3 µM (inactive) | 18 µM (inactive) | 17.8 µM (inactive) | 15.7 µM (inactive) | 15.2 µM (inactive) | 0.628 µM (active) | 16.9 µM (inactive) | 17.8 µM (inactive) |
| O=C(O)CC/C(=N\Nc1nsc2ccccc12)c1ccccc1 | – | > 100 µM (inactive) | > 100 µM (inactive) | 36 | 97.5 µM (inactive) | 51.3 µM (inactive) | > 100 µM (inactive) | > 100 µM (inactive) | 27.2 µM (inactive) | – | 26.5 µM (inactive) | 58.5 µM (inactive) | > 100 µM (inactive) | 39.4 µM (inactive) | > 100 µM (inactive) | – | 52.4 µM (inactive) | 58.5 µM (inactive) | > 100 µM (inactive) | 70.6 µM (inactive) |
| Cc1cccc2sc(-c3ccc(O)cc3)nc12 | 3.15 µM (inactive) | 12.8 µM (inactive) | 14.9 µM (inactive) | 12.6 | – | – | 13.7 µM (inactive) | 15.5 µM (inactive) | 16.5 µM (inactive) | 19.3 µM (inactive) | 16.1 µM (inactive) | 16 µM (inactive) | 16.4 µM (inactive) | 16.6 µM (inactive) | 21.5 µM (inactive) | 19.6 µM (inactive) | 11.5 µM (inactive) | 16 µM (inactive) | 13.6 µM (inactive) | 16.5 µM (inactive) |
| O=c1cnn(C/C=C/CP(=O)(O)O)c(=O)[nH]1 | > 100 µM (inactive) | > 100 µM (inactive) | 80 µM (inactive) | > 100 | > 100 µM (inactive) | > 100 µM (inactive) | > 100 µM (inactive) | > 100 µM (inactive) | > 100 µM (inactive) | > 100 µM (inactive) | > 100 µM (inactive) | – | > 100 µM (inactive) | > 100 µM (inactive) | > 100 µM (inactive) | – | > 100 µM (inactive) | – | > 100 µM (inactive) | 97.1 µM (inactive) |
| O=C(Nc1ccc(I)cc1C(=O)NCCO)c1cccs1 | – | 82.8 µM (inactive) | > 100 µM (inactive) | > 100 | > 100 µM (inactive) | – | > 100 µM (inactive) | > 100 µM (inactive) | > 100 µM (inactive) | > 100 µM (inactive) | > 100 µM (inactive) | > 100 µM (inactive) | > 100 µM (inactive) | > 100 µM (inactive) | > 100 µM (inactive) | > 100 µM (inactive) | > 100 µM (inactive) | > 100 µM (inactive) | > 100 µM (inactive) | > 100 µM (inactive) |
| Nc1nc(N)nc(-c2ccccc2NS(=O)(=O)c2ccc([N+](=O)[O-])cc2)n1 | > 100 µM (inactive) | > 91.2 µM (inactive) | 17.9 µM (inactive) | > 84.5 | > 100 µM (inactive) | > 100 µM (inactive) | > 100 µM (inactive) | 84.9 µM (inactive) | 37.2 µM (inactive) | 17.3 µM (inactive) | 54 µM (inactive) | 44.2 µM (inactive) | > 100 µM (inactive) | 96.8 µM (inactive) | > 100 µM (inactive) | > 100 µM (inactive) | > 100 µM (inactive) | > 96.6 µM (inactive) | > 54.8 µM (inactive) | – |
| CCOC(=O)C(C)OC(=O)c1ccc(C)cc1 (stereo not given) | > 100 µM (inactive) | > 100 µM (inactive) | > 100 µM (inactive) | > 100 | – | > 100 µM (inactive) | > 100 µM (inactive) | > 100 µM (inactive) | > 100 µM (inactive) | – | > 100 µM (inactive) | – | > 100 µM (inactive) | > 100 µM (inactive) | > 100 µM (inactive) | > 100 µM (inactive) | > 100 µM (inactive) | > 100 µM (inactive) | > 100 µM (inactive) | > 100 µM (inactive) |

From ChEMBL document CHEMBL1201862, “PubChem BioAssay data set” (2004)
